Test results taken from PMC8536644, “Enigmatic mechanism of the N-vinylpyrrolidone hepatocarcinogenicity in the rat” (Archives of Toxicology, 2021).
Several values for one entry are separate records, joined by “and”; a condition that tells them apart may be missing. Equal values may be shown once. Read-outs that look alike come from different tables or passages of the source. Marks after values point to notes of the source that are not given here.

What was measured:
rat liver = test: Non-protein-bound sulfhydryl groups (NPSH) in liver homogenate supernatant; format: in vivo; settings: for NPSH, individual animal / NPSH, group (mean ± SD): rat liver; for NPSH, group (mean ± SD): n = 6
Experimental: Determination of NPSH was performed according to the principle described by Ellmann (1958, 1959) in the liver homogenate supernatant fraction of the NVP-exposed male Wistar rats. […] The supernatant fraction was stored in aliqots at − 80 °C. Prior to assay, the samples were diluted fourfold and to 100 µL of the diluted sample 200 µL Tris/EDTA (1 M/5 mM, pH 8.9) buffer was added. Determinations were performed in triplicates. […] Measurements were performed 5 min thereafter at λ = 412 nm.

rats = tested on: rats; design: method as in Klimisch et al. [1997b]; settings: ref Klimisch et al. [1997b], cited from earlier work
[1] = tested on: L5178Y mouse lymphoma cells; design: method as in MAK [1994]; settings: ref MAK [1994]; cited from earlier work
Klebsiella pneumoniae = settings: ref MAK [1994]; cited from earlier work
primary rat hepatocytes = test: Gene expression analysis (Affymetrix) in cultivated rat hepatocytes; format: cell-based; settings: 24 h; for Nrg1 upregulation / PDK4 upregulation / Atf3 upregulation: adj. p < 0.001
Experimental: Isolation and cultivation of primary rat hepatocytes was performed according to a published standard operation procedure (Godoy et al. [2013]) and Affymetrix gene array analysis as described in Grinberg et al. ([2018]). Briefly, male Wistar rats with a body weight of 220–300 g were purchased from Charles River (Sulzfeld, Germany). The animals had free access to food (sniff, Soest, Germany) and water and were kept under controlled temperature (18–26 °C), humidity (30–70%) and lighting (12 h light/dark circle). Prior to any experimental procedure, the animals were acclimated for a minimum of 6 days. This study was approved by the local committee for the welfare of experimental animals and was performed in accordance with national legislation. RNA was extracted from cultivated primary hepatocytes as described by Heise et al. ([2012]). Incubation of the cultivated rat hepatocytes with the test compounds was performed for 24 h. Rat hepatocytes were cultivated as sandwich cultures using 6well dishes. Three independent incubations with the test compound were performed. For Affymetrix gene chip analysis samples isolated from the 6-well dishes were stored in RNAprotect reagent from Qiagen until isolation of RNA. The RNA was quantified using a NanoDrop N-1000 spectrophotometer, and the integrity of RNA was confirmed with a standard sense automated gel electrophoresis system. Samples were used for transcriptional profiling only when their RNA quality indicator (RQI) number was > 8. First-strand cDNA was synthesized from 100 ng total RNA using an oligo-dT primer with an attached T7 promoter sequence, followed by the complementary second strand. The double-stranded cDNA molecule was used for in vitro transcription (IVT, standard Affymetrix procedure) using Genechip 3′ IVT Express Kit. During synthesis of the aRNA (amplified RNA, also commonly referred to as cRNA), a biotinylated nucleotide analogue was incorporated, which served as a label for the message. After amplification, aRNA was purified with magnetic beads and 15 µg of aRNA was fragmented with the fragmentation buffer as per the manufacturer’s instructions. Then 12.5 µg fragmented aRNA was hybridized with Affymetrix Rat Genome 230 2.0 Arrays. The chips were placed in a GeneChip Hybridization Oven-645 for 16 h at 60 rpm and 45 °C. For staining and washing, Affymetrix HWS kits were used on a Genechip Fluidics Station-450. For scanning, the Affymetrix GeneChip Scanner-3000-7G was used, and the image and quality control assessments were performed with Affymetrix GCOS software. All reagents and instruments were acquired from Affymetrix (Affymetrix, Santa Clara, CA, USA). The generated CEL files were used for further statistical analysis as described in Grinberg et al., 2018).

Sprague–Dawley rats = settings: cited from earlier work; for Larynx squamous carcinoma, incidence / Liver hepatocellular carcinoma, incidence / Nasal cavity adenocarcinoma, incidence / Nasal cavity adenoma, incidence: 24 months inhalation, 60 animals, ref Klimisch et al. (1997a)
estrogen receptor α = tested on: estrogen receptor α; design: method as in ToxCast (comptox.epa.gov dashboard); settings: ref ToxCast (comptox.epa.gov dashboard); cited from earlier work

For C=CN1CCCC1=O [NVP, N-vinylpyrrolidone], the “GSH concentration (NPSH assay), range” value (rat liver; NVP-exposed male rats, 5-20 ppm) was 3.72–5.23 µmol/g liver, the “NPSH, individual animal” value (rat liver; 5 ppm NVP inhalation, animals 7-12) was 5,13 µmol/g liver and 4,59 µmol/g liver and 4,10 µmol/g liver and 4,86 µmol/g liver and 3,99 µmol/g liver and the “NPSH, group (mean ± SD)” value (rat liver; 5 ppm NVP inhalation) was 4.42 ± 0.52 µmol/g liver. The “NPSH, individual animal” value (rat liver; 10 ppm NVP inhalation, animals 13-18) was 4.11 µmol/g liver and 4.72 µmol/g liver and 4.83 µmol/g liver and 4.57 µmol/g liver and 3.76 µmol/g liver, the “NPSH, group (mean ± SD)” value (rat liver; 10 ppm NVP inhalation) was 4.23 ± 0.58 µmol/g liver and the “NPSH, individual animal” value (rat liver; 20 ppm NVP inhalation, animals 19-24) was 4.47 µmol/g liver and 5.23 µmol/g liver and 3.72 µmol/g liver and 3.88 µmol/g liver and 4.67 µmol/g liver and 4.64 µmol/g liver. For the same compound, the “NPSH, group (mean ± SD)” value (rat liver; 20 ppm NVP inhalation) was 4.44 ± 0.55 µmol/g liver, the “Change of total non-protein-bound sulfhydryls” value (rats; Sprague–Dawley rats, inhalation 3 months, 10 ppm) was “increase” and the “Concentration at which erythrocytes, hematocrit and hemoglobin were reduced” value (rats; rats, inhalation) was 15 ppm. The “Concentration with foci of altered hepatocytes” value (rats; rats, inhalation) was 5 ppm, the “LOAEC, liver (increased gamma-glutamyl transpeptidase and glutathione)” value (rats; rats, inhalation) was 5 ppm and the “LOAEC, nasal mucosa (inflammation, olfactory epithelium atrophy, basal cell hyperplasia)” value (rats; rats, inhalation) was 5 ppm. For the same compound, the “Dose with necrosis of single centrilobular liver cells” value (rats; subchronic studies in rats and mice) was 45 ppm, the “Mammalian cell mutation tests (HGPRT and TK locus) result” value [1] was “negative” and the “Klebsiella pneumoniae fluctuation (point mutation) test result” value (Klebsiella pneumoniae) was “negative”. For the same compound, the Nrg1 upregulation (primary rat hepatocytes; 40 µM) was 3.5 fold, the PDK4 upregulation (primary rat hepatocytes; 40 µM) was 3.5 fold and the Atf3 upregulation (primary rat hepatocytes; 200 µM) was 5.1. For the same compound, the Nrg1 upregulation (primary rat hepatocytes; 200 µM) was 6.2 fold, the PDK4 upregulation (primary rat hepatocytes; 200 µM) was 5.9 fold and the Atf3 upregulation (primary rat hepatocytes; 1000 µM) was 7.1. For the same compound, the Nrg1 upregulation (primary rat hepatocytes; 1000 µM) was 7.3 fold, the PDK4 upregulation (primary rat hepatocytes; 1000 µM) was 8.8 fold and the “Lowest concentration with expression changes (PCA)” value (primary rat hepatocytes; 8, 40, 200 and 1000 µM tested) was 8 µM. For the same compound, the “Larynx squamous carcinoma, incidence” value (Sprague–Dawley rats; female, 5 ppm) was 0, the “Liver hepatocellular carcinoma, incidence” value (Sprague–Dawley rats; female, 5 ppm) was 3 and the “Nasal cavity adenocarcinoma, incidence” value (Sprague–Dawley rats; female, 5 ppm) was 0. The “Nasal cavity adenoma, incidence” value (Sprague–Dawley rats; female, 5 ppm) was 2, the “Larynx squamous carcinoma, incidence” value (Sprague–Dawley rats; female, 10 ppm) was 0 and the “Liver hepatocellular carcinoma, incidence” value (Sprague–Dawley rats; female, 10 ppm) was 6*. For the same compound, the “Nasal cavity adenocarcinoma, incidence” value (Sprague–Dawley rats; female, 10 ppm) was 0, the “Nasal cavity adenoma, incidence” value (Sprague–Dawley rats; female, 10 ppm) was 8** and the “Larynx squamous carcinoma, incidence” value (Sprague–Dawley rats; female, 20 ppm) was 4. For the same compound, the “Liver hepatocellular carcinoma, incidence” value (Sprague–Dawley rats; female, 20 ppm) was 26***, the “Nasal cavity adenocarcinoma, incidence” value (Sprague–Dawley rats; female, 20 ppm) was 4* and the “Nasal cavity adenoma, incidence” value (Sprague–Dawley rats; female, 20 ppm) was 14***. For the same compound, the “Larynx squamous carcinoma, incidence” value (Sprague–Dawley rats; male, 5 ppm) was 0, the “Liver hepatocellular carcinoma, incidence” value (Sprague–Dawley rats; male, 5 ppm) was 6* and the “Nasal cavity adenocarcinoma, incidence” value (Sprague–Dawley rats; male, 5 ppm) was 0. For the same compound, the “Nasal cavity adenoma, incidence” value (Sprague–Dawley rats; male, 5 ppm) was 9**, the “Larynx squamous carcinoma, incidence” value (Sprague–Dawley rats; male, 10 ppm) was 0 and the “Liver hepatocellular carcinoma, incidence” value (Sprague–Dawley rats; male, 10 ppm) was 5*. For the same compound, the “Nasal cavity adenocarcinoma, incidence” value (Sprague–Dawley rats; male, 10 ppm) was 4*, the “Nasal cavity adenoma, incidence” value (Sprague–Dawley rats; male, 10 ppm) was 9*** and the “Larynx squamous carcinoma, incidence” value (Sprague–Dawley rats; male, 20 ppm) was 4. For the same compound, the “Liver hepatocellular carcinoma, incidence” value (Sprague–Dawley rats; male, 20 ppm) was 17***, the “Nasal cavity adenocarcinoma, incidence” value (Sprague–Dawley rats; male, 20 ppm) was 6* and the “Nasal cavity adenoma, incidence” value (Sprague–Dawley rats; male, 20 ppm) was 11***. The “Lowest tested dose at which hepatocellular carcinomas were observed” value (Sprague–Dawley rats; rat, inhalation, ref Klimisch et al. [1997a]) was 5 ppm and the “Effect on estrogen receptor α” value (estrogen receptor α) was “activates”.
